This note sets out measurements from patent US11541057B2, “Thienopyrimidinone NMDA receptor modulators and uses thereof” (Cadent Therapeutics, Inc., priority 2015, dated 2023).

The target of the assay is T1, NMDA receptor GRIN1/GRIN2B (NR2B) expressed in HEK293 cells (Homo sapiens, UniProt Q13224).
T1 construct: host or cells: HEK293
T1 sequence (Q13224 27-1484, other chains not shown): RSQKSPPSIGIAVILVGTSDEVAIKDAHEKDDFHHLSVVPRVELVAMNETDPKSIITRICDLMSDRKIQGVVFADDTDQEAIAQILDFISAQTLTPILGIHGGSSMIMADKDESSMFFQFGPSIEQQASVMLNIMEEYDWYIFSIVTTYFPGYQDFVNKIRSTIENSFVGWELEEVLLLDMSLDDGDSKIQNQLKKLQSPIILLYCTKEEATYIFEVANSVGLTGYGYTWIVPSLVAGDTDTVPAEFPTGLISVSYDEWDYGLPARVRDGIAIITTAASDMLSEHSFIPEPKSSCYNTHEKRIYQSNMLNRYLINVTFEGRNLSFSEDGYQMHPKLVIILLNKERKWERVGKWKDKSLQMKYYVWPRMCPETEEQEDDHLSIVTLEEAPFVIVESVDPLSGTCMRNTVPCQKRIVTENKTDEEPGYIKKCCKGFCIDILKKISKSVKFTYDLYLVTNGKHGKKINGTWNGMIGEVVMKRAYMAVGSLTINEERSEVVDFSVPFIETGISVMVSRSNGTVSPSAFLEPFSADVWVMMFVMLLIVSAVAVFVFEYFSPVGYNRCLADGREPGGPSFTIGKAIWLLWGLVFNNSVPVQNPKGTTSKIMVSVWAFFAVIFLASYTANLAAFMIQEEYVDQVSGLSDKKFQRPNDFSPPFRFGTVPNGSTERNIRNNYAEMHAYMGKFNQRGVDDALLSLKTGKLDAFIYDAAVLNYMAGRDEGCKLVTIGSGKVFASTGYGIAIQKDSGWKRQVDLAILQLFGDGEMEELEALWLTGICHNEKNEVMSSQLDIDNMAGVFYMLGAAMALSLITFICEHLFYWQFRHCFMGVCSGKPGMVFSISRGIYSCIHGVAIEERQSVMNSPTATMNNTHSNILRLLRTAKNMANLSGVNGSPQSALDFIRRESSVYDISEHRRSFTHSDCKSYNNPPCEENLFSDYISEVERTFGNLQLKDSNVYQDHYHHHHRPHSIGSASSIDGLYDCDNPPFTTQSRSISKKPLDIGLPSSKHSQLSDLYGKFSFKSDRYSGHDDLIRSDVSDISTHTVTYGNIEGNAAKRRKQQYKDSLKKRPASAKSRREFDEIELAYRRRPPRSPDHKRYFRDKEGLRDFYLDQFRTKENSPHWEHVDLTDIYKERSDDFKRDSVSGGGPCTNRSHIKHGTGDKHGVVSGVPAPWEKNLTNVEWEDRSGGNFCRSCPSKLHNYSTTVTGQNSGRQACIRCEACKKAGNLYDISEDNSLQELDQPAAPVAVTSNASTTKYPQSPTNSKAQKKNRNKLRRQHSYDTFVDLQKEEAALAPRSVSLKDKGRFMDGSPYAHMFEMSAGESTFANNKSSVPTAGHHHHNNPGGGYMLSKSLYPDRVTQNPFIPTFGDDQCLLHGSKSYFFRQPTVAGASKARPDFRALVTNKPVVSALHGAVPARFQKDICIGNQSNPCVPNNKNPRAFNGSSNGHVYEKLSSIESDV
The assay can be described thus: Reversal of Ro 25-6981-mediated suppression of the Ca2+ response (fluo-8 fluorescence, FDSS) in HEK293 cells expressing GRIN1 and GRIN2B. Type of assay: cell-based. The conditions noted are these: % reversal=100*(R−Rneg)/(Rpos−Rneg) of Ro 25-6981 suppression of co-agonist (glutamate/glycine) Ca2+ response, 10 min pre-incubation, compound concentration not given. The procedure, abridged: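 HEK293 with stable GRIN1 and tetracycline-induced GRIN2B, loaded with fluo-8 and preincubated 10 min with compound plus Ro 25-6981 and 5,7-dichlorokynurenic acid. Ca2+ response recorded 2 min after glutamate/glycine/CaCl2 co-agonist addition. % reversal = 100*(R−Rneg)/(Rpos−Rneg) from end fluorescence ratios.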
`Cc1sc2ncn(CC(=O)N3CCCC3)c(=O)c2c1-c1ccc(F)c(Cl)c1` [Example 83, 5-(3-chloro-4-fluorophenyl)-6-methyl-3-[2-oxo-2-(pyrrolidin-1-yl)ethyl]-3H,4H-thieno[2,3-d]pyrimidin-4-one]: the “Response Recovered (%)” value amounted to 45%.
Take `Cc1sc2ncn(CC(=O)N3CCCC3)c(=O)c2c1-c1ccc(Cl)c(Cl)c1` [Example 84, 5-(3,4-dichlorophenyl)-6-methyl-3-[2-oxo-2-(pyrrolidin-1-yl)ethyl]-3H,4H-thieno[2,3-d]pyrimidin-4-one]: the “Response Recovered (%)” value amounted to 60%.
In the case of `O=C(On1cnc2scc(-c3ccc(Cl)c(C(F)(F)F)c3)c2c1=O)N1CCCC1` [Example 85, 5-(4-chloro-3-(trifluoromethyl)phenyl)-4-oxothieno[2,3-d]pyrimidin-3(4H)-yl pyrrolidine-1-carboxylate], the “Response Recovered (%)” value is 51%.
Take `O=C(On1cnc2scc(-c3ccc(F)c(Cl)c3)c2c1=O)N1CCCC1` [Example 86, 5-(3-chloro-4-fluorophenyl)-4-oxo-3H,4H-thieno[2,3-d]pyrimidin-3-yl pyrrolidine-1-carboxylate]: the “Response Recovered (%)” value stood at 48%.
With `O=C(On1cnc2scc(-c3ccc(Cl)c(F)c3)c2c1=O)N1CCCC1` [Example 87, 5-(4-chloro-3-fluorophenyl)-4-oxo-3H,4H-thieno[2,3-d]pyrimidin-3-yl pyrrolidine-1-carboxylate], the “Response Recovered (%)” value amounted to 32%.
Turning to `O=C(On1cnc2scc(-c3ccc(F)c(Cl)c3)c2c1=O)N1CCC(F)C1` (centres unmarked) [Example 88, 5-(3-chloro-4-fluorophenyl)-4-oxo-3H,4H-thieno[2,3-d]pyrimidin-3-yl 3-fluoropyrrolidine-1-carboxylate], the “Response Recovered (%)” value is reported as 83%.
Take `O=C(Nn1cnc2scc(-c3ccc(Cl)c(C(F)(F)F)c3)c2c1=O)N1CCCC1` [Example 89, N-(5-(4-chloro-3-(trifluoromethyl)phenyl)-4-oxothieno[2,3-d]pyrimidin-3(4H)-yl)pyrrolidine-1-carboxamide]: the “Response Recovered (%)” value amounted to 29%.
Under `O=C(Nn1cnc2scc(-c3ccc(F)c(Cl)c3)c2c1=O)N1CCCC1` [Example 90] stands 10%; under `O=C(CNn1cnc2scc(-c3ccc(Cl)c(C(F)(F)F)c3)c2c1=O)N1CCCC1` [Example 91, 5-(4-chloro-3-(trifluoromethyl)phenyl)-3-((2-oxo-2-(pyrrolidin-1-yl)ethyl)amino)thieno[2,3-d]pyrimidin-4(3H)-one], 2%; under `O=C(COn1cnc2scc(-c3ccc(Cl)c(C(F)(F)F)c3)c2c1=O)N1CCCC1` [Example 92, 5-(4-chloro-3-(trifluoromethyl)phenyl)-3-(2-oxo-2-(pyrrolidin-1-yl)ethoxy)thieno[2,3-d]pyrimidin-4(3H)-one], 37%.
Under `O=C(COn1cnc2scc(-c3ccc(F)c(Cl)c3)c2c1=O)N1CCCC1` [Example 93, 5-(3-chloro-4-fluorophenyl)-3-[2-oxo-2-(pyrrolidin-1-yl)ethoxy]-3H,4H-thieno┌2,3-d┐pyrimidin-4-one] stands −1%; under `O=c1c2c(-c3ccc(Cl)c(C(F)(F)F)c3)csc2ncn1/N=C/N1CCCC1` [Example 94, (E)-5-(4-chloro-3-(trifluoromethyl)phenyl)-3-((pyrrolidin-1-ylmethylene)amino)thieno[2,3-d]pyrimidin-4(3H)-one], 18%.
Under `O=C(Nn1cnc2scc(-c3ccc(Cl)c(C(F)(F)F)c3)c2c1=O)C1CCCC1` [Example 95, N-(5-(4-chloro-3-(trifluoromethyl)phenyl)-4-oxothieno[2,3-d]pyrimidin-3(4H)-yl)cyclopentanecarboxamide] stands 21%.
`O=C(Nn1cnc2scc(-c3ccc(F)c(Cl)c3)c2c1=O)C1CCCC1` [Example 96, N-[5-(3-chloro-4-fluorophenyl)-4-oxo-3H,4H-thieno[2,3-d]pyrimidin-3-yl]cyclopentanecarboxamide]: the “Response Recovered (%)” value was determined as 27%.
